Source: patent US20090176776A1, “SMALL MOLECULE INHIBITORS OF HIV-1 CAPSID ASSEMBLY” (UNIVERSITY OF ALABAMA AT BIRMINGHAM, priority 2005, published 2009)

How the values were obtained:
[1] = MTS score (Table 1; method not described); format: cell-based; conditions: for MTS AVG 4 (No Effect): average of the MTS scores at 10, 30 and 100 μM; for MTS 10 μM: score at nominal 10 μM; for MTS 10 μM / MTS 30 μM / MTS 100 μM: 4 = No Effect; for MTS 30 μM: score at nominal 30 μM; for MTS 100 μM: score at nominal 100 μM
[2] = biological target: T1, recombinant HIV-1 capsid protein (CA) (Human immunodeficiency virus type 1 group M subtype B, UniProt P12493); test: Turbidity based HIV-1 capsid assembly assay; format: biochemical; conditions: initial assembly rate by turbidity; twofold dilutions over a 128 fold range; 30 μM CA, 2.25 M NaCl
T1 construct: recombinant HIV-1 capsid protein (CA); made in house
Experimental: The kinetics can be followed by monitoring the increase of turbidity using a spectrophotometer. The IC50 of the chemical compound tested is determined by titration. As the C-domain inhibits capsid assembly by forming CA-C-domain heterodimers, the effect of added C-terminal domain on the rate of assembly was evaluated by plotting the rate of assembly versus C-terminal domain concentration.
Soluble HIV-1 capsid protein can be triggered to assemble into tubes similar in diameter and morphology to intact cores by dilution into high iconic strength buffer. The kinetics of assembly can be followed by monitoring the increase in turbidity using a spectrophotometer (Lanham et al., J. Virol., 76:6900, 2002). This assembly assay was adapted to a 96-well, microplate format to allow for medium-throughput screening of compounds by measuring turbidity in a Nepeloskan Ascent plate reader (Thermo Electron Corp., UK). A DIVERSet™ library of 10,000 low molecular weight, “drug-like” compounds was purchased from ChemBridge Corp. (San Diego, Calif.). This library was selected for its potential bioavailability and application based on a pharmacophore diversity analysis. The average molecular weight of the compounds is 347 g/mol, the range being 200-596 g/mol. The compounds came plated in 96-well plates and solubilized in DMSO at 5 mgs/mL.
Turbidity based assay. A 1.5 μL aliquot of compound was diluted 90-fold into 50 mM Na2HPO4, […] buffer, pH 8 in an optically clear 96-well plate. The plate containing compounds and salt was read to check for compound solubility and to serve as a background reading for the assay. To initiate the assembly reaction, 15 μL of […] stock (in 50 mM Na2HPO4 pH 8) of recombinant HIV-1 capsid protein (CA), purified as described (Lanman et al., J. Virol., 76:6900, 2002), was added to each well of the 96-well plate using a multi-channel pipettor. […] Furthermore, the halftime of the assembly reaction is ˜5 minutes so reading the plate in thirds prevented loss of initial rate data. Therefore, CA was added to the first 4 lanes, the reactions followed for ten minutes, reading was paused, CA was then added to the next four lanes and the process repeated. Instrument settings are as follows: PMT gain of 500 V, lamp at 10V, and integration time of 60 ms. The data were exported to a custom designed Excel spreadsheet that allowed simultaneous plotting of kinetic curves.
Recombinant CA protein was purified as previously described and stored at 300 μM at −80° C. A turbidity based assembly assay, described above, was adapted to a 96-well, microplate format to allow for medium-throughput screening of compounds in a Nepheloskan Ascent plate reader (Thermo Electron Corp., UK). A 1.5 μL aliquot of compound or DMSO was diluted 90-fold into 50 mM Na2HPO4, 2.25 M NaCl buffer, pH 8 in an optically clear 96-well plate. To initiate the assembly reaction, 15 μL of the 300 μM stock (in 50 mM Na2HPO4 pH 8) of recombinant HIV-1 capsid protein (CA), was added to each well of the 96-well plate using a multi-channel pipettor.

HIV-1NL43 [3] = test: Anti-HIV assay (single round), infectivity of virus produced, titered on TZM-b1 cells; format: cell-based; conditions: virus from NL43-transfected 293T cells, 72 hours; luciferase after two days; read-out: Infectivity 50%
Experimental: (§1) Anti-HIV Assays (Single Round). The inhibitory effect of the compounds on virus production and infectivity were determined by measuring the level of p24 produced in the presence of various concentrations of compounds from HEK-293 cells transiently transfected with pNL43 and by titering the virus on TZM-b1 cells. Briefly, 2.5×10^5 HEK-293 cells/ml were transfected with pNL43 using FuGene 6. Four hours post transfection the cells were plated in 96-well plates containing 100 μl of various concentrations of compounds (0-75 μM or 0-300 μM for mock transfected cells) in triplicate. At 72-hours post transfection virus supernatant was collected and stored at −80° C. until analysis. The level of p24 produced at each compound concentration was determined relative to the level produced in the presence of the DMSO only controls using HIV-1 p24 enzyme-linked immunosorbent assay (ELISA) (Beckman-Coulter). To determine the infectivity of the virus produced TZM-b1 cells were plated at 1×10^5 cells/ml in 100 μL in 96-well plates overnight. The next day, the media was replaced with 75 μL DMEM supplemented with 1% FBS, 1× PSG and 40 μg/ml DEAE Dextran and 25 μL of viral supernatant from the HEK-293 cells was added to each well. Three hours later 100 μL of DMEM with 7% FBS was added to each well. Two days after infection the cells were lysed and the level of luciferase expression was determined using the Bright-Glo assay.
(§2) FIGS. 12-18 show the anti-HIV assays for the examples of chemical compounds used according to the invention. After in-vitro assay, the chemical compounds in FIGS. 12-18 were selected for screening for cell viability and toxicity. Jurkat cells assay was used as screening assay. In Jurkat cells assay, JLTRG-R5 cells were used as Indicator cells and MOLT4 cells as Producer cells of NL43 and BAL virus. 96 chemical compounds were plated at seven different concentration from 75 μM to 0 μM at three-fold serial dilutions in 384 well plate. After five days, GFP expression was read. Cell viability was monitored with Alamar Blue assay. Luc M7 assay was designed to measure inhibitory activity of the chemical compounds to viral replication. After infection of cells with YU2 virus, plate cells in 96-well plate in the presence of six concentration of compounds in DMSO. At day 6, the number of cells in wells were read with Cell Titer Glo kit or by counting the number of cells infected with Bright Glo kit. 293T cells assay was designed to determine the toxicity. 293T cells were transfected with NL43. After four hours, transfected cells were plated in 96-well plate in DMSO and 2 μM Indinavir. 72 hours later, viral supernatant was collected and plated on JC53BL. Luciferase expression was measure after two days and p24 analysis was conducted with 1:1000 and 1:2000 dilutions.

HIV-1NL43 [4] = test: Anti-HIV assay (single round), p24 production by pNL43-transfected cells (ELISA); format: cell-based; conditions: p24 in supernatant of NL43-transfected 293T cells, 72 hours; read-out: p24 50%
Experimental: as §1, §2

293T cells = test: Toxicity in 293T cells; format: cell-based, human; design: unit not given beside the values
Experimental: as §1, §2

Luc-M7 cells = test: Cell viability of Luc-M7 cells (Cell-Titer Glo); format: cell-based; design: unit: μM; conditions: mock-infected Luc-M7 cells, 6 days
Experimental: (§3) Anti-HIV Assays (Multiple Round). The inhibitory effects of the tested compounds on HIV-1YU2 replication were determined by the level of luciferase expression after 6 days of infection using Bright-Glo assay (Promega). An amount of 1.5×10^4 Luc-M7 (a gift from Ned Landau) cells per ml were infected with HIV-1YU2 at a multiplicity of infection (MOI) of 3. The HIV-1 infected ([…] compound) or mock-infected (0-300 μM compound) Luc-M7 cells were placed in 96-well culture plates (100 μl/well) with 100 μl of various concentrations of the compounds with 20 μg/ml DEAE Dextran in triplicate and incubated at 37° C. under 5% CO2 at 100% humidity. After 6 days, cell viability was quantified by Cell-Titer Glo assay (Promega). […] On day 5 cell viability was determined in the mock-infected cells. FIGS. 12-18 show the anti-HIV assays for the examples of chemical compounds used according to the invention. After in-vitro assay, the chemical compounds in FIGS. 12-18 were selected for screening for cell viability and toxicity. Jurkat cells assay was used as screening assay. […] After five days, GFP expression was read. Cell viability was monitored with Alamar Blue assay. Luc M7 assay was designed to measure inhibitory activity of the chemical compounds to viral replication. After infection of cells with YU2 virus, plate cells in 96-well plate in the presence of six concentration of compounds in DMSO. At day 6, the number of cells in wells were read with Cell Titer Glo kit or by counting the number of cells infected with Bright Glo kit. 293T cells assay was designed to determine the toxicity. 293T cells were transfected with NL43. After four hours, transfected cells were plated in 96-well plate in DMSO and 2 μM Indinavir. 72 hours later, viral supernatant was collected and plated on J[…].

HIV-1YU2 = test: Anti-HIV assay (multiple round), luciferase expression in Luc-M7 cells; format: cell-based; conditions: Luc-M7 cells infected with HIV-1YU2, 6 days, Bright-Glo
Experimental: as §3

| Structure (SMILES) | MTS AVG 4 (No Effect) [1] | MTS 10 μM [1] | MTS 30 μM [1] | MTS 100 μM [1] | IC50 [2] [µM] | IC50 (HIV-1NL43 [3]) [µM] | IC50 (HIV-1NL43 [4]) [µM] | TC50% (293T cells) | TC50 (Luc-M7 cells) | IC50 (HIV-1YU2) [µM] |
| --- | --- | --- | --- | --- | --- | --- | --- | --- | --- | --- |
| COc1ccc(NS(=O)(=O)c2ccc(Br)cc2)cc1OC [Compound 14] | 1.667 | 2 | 1 | 2 | 10 | > 75 | 62.8 | 102 | – | – |
| Cc1nc2ccccc2n1Cc1ccc(Br)cc1 [Compound 18] | 1.000 | 1 | 1 | 1 | 21 | 43.2 | 1.8 | 9.1 | – | – |
| O=[N+]([O-])c1c(Cl)cc(O)c2c1C1C=CCC1C(c1ccc(Br)cc1)N2 (centres unmarked) [Compound 25] | 1.000 | 1 | 1 | 1 | 10 | 17.7 | 10.4 | 174 | – | – |
| O=C(O)C(S)Cc1ccc(Cl)cc1 (centres unmarked) [Compound 47] | 2.000 | 4 | 1 | 1 | 37 | 34.2 | 24.6 | 202 | – | – |
| CCc1ccc(OCCCCCn2ccnc2)cc1 [Compound 58] | 1.333 | 2 | 1 | 1 | 25 | 10 | 1.69 | 5 | 8.7 | 0.06 |
| CCN(CC)c1ccc(C=Nc2ccc(Sc3ccc([N+](=O)[O-])cc3)cc2)cc1 [Compound 70] | 3.000 | – | 4 | 2 | 33 | 32.9 | 67.5 | 135 | 92.5 | 1.47 |
| Cc1ccc(S(=O)(=O)NN=Cc2cc(Br)cc(Br)c2O)cc1 [Compound 73] | 3.000 | 4 | 3 | 2 | 15 | 32 | 70 | 178 | – | – |
